# Assay results published in patent publication EP0597303A2, “Cephalosporin derivatives” (priority 1992, dated 1994).
# Where a name gives a salt, the structure may show the parent alone. Read-outs that look alike come from different tables or passages of the source.
# Tests used:
# Assay in all cases: MIC, Agar (Mueller Hinton) Dilution Method
# Format in all cases: cell-based
# A. calcoaceticus PCI-3 = settings: Acinetobacter calcoaceticus, PCI3, Gram Negative
# Excerpt: (§1) The in vitro activity of the compounds of formula I of the present invention as measured by the Minimum Inhibitory Concentration (MIC) in micrograms/ml utilizing the Agar (Mueller Hinton) Dilution Method against a variety of Gram-positive and Gram-negative organisms, is set forth in Table 1.
# Bacillus subtilis 558 = test system: Bacillus subtilis 558
# Excerpt: as §1
# Candida albicans 155 = settings: Gram Positive and Others
# Excerpt: as §1
# E. coli 1527E = settings: Escherichia coli, Gram Negative
# Excerpt: as §1
# E. coli 2008 E = settings: Escherichia coli
# Excerpt: as §1
# E. coli 2722B = settings: Escherichia coli, Gram Negative
# Excerpt: as §1
# E. coli 4 = settings: Escherichia coli
# Excerpt: as §1
# E. coli 94 = settings: Escherichia coli, Gram Negative
# Excerpt: as §1
# E. coli DC-0 = settings: Escherichia coli, DC0, Gram Negative
# Excerpt: as §1
# E. coli DC-2 = settings: Escherichia coli, DC2, Gram Negative
# Excerpt: as §1
# E. coli HMS1 = settings: Escherichia coli
# Excerpt: as §1
# E. coli Leo HA2M4 = settings: Escherichia coli, LEOHA2M4
# Excerpt: as §1
# Ent. hirae ATCC 8043 = settings: Enterococcus hirae, ATCC8043, Gram Positive and Others
# Excerpt: as §1
# Enter. cloacae 4192-2 = settings: Enterobacter cloacae, 41922
# Excerpt: as §1
# Enterobacter cloacae P99 = test system: Enterobacter cloacae P99
# Excerpt: as §1
# Escherichia coli 257 = settings: Gram Negative
# Excerpt: as §1
# K. oxytoca 1082EN = settings: Klebsiella oxytoca
# Excerpt: as §1
# K. pneumoniae 369 = settings: Klebsiella pneumoniae
# Excerpt: as §1
# Micrococcus luteus PCI = settings: Micrococcus luteus PCI; Gram Positive and Others; read-out: MIC
# Excerpt: as §1
# Prot. mirabilis 503-1136 = settings: Proteus mirabilis, 5031136
# Excerpt: as §1
# Prot. mirabilis 90 = settings: Proteus mirabilis
# Excerpt: as §1
# Prot. vulgaris 100 = settings: Proteus vulgaris, Gram Negative
# Excerpt: as §1
# Prot. vulgaris 1028 BC = settings: Proteus vulgaris
# Excerpt: as §1
# [1] = test system: Proteus vulgaris ATCC 6380; settings: ATCC6380
# Excerpt: as §1
# Ps. aeruginosa 18SH = settings: Pseudomonas aeruginosa, constitutive ß-lactamase producer, Gram Negative
# Excerpt: as §1
# Ps. aeruginosa 1973 E = settings: Pseudomonas aeruginosa, Gram Negative
# Excerpt: as §1
# Ps. aeruginosa 56-1B = settings: Pseudomonas aeruginosa, 561B
# Excerpt: as §1
# Ps. aeruginosa 56M = settings: Pseudomonas aeruginosa, Gram Negative
# Excerpt: as §1
# Ps. aeruginosa 56 = settings: Pseudomonas aeruginosa, Gram Negative
# Excerpt: as §1
# Ps. aeruginosa B = settings: Pseudomonas aeruginosa, Gram Negative
# Excerpt: as §1
# Ps. aeruginosa K799/61 = settings: Pseudomonas aeruginosa; Ps. aeruginosa K799/61; Gram Negative; read-out: MIC
# Excerpt: as §1
# Ps. aeruginosa K799/WT = settings: Pseudomonas aeruginosa, Gram Negative
# Excerpt: as §1
# Ps. cepacia 1973 B = settings: Burkholderia cepacia, Gram Negative
# Excerpt: as §1
# Ser. marcescens MA = settings: Serratia marcescens, Gram Negative
# Excerpt: as §1
# Serratia marcescens SM = test system: Serratia marcescens SM
# Excerpt: as §1
# Staph. aureus 3647B = settings: Staphylococcus aureus
# Excerpt: as §1
# Staph. pyogenes 4 = test system: Staph. pyogenes 4
# Excerpt: as §1
# [2] = test system: Staphylococcus aureus Smith
# Excerpt: as §1
# [3] = test system: Str. pneumoniae N82-012-MC; settings: Streptococcus pneumoniae, N82012MC
# Excerpt: as §1
# Xan. maltophilia 2897B = settings: Stenotrophomonas maltophilia, Gram Negative
# Excerpt: as §1
# [4] = Bacillus subtilis 558, Gram Positive and Others, read-out: MIC
# [5] = E. coli 2008 E, Gram Negative, read-out: MIC
# [6] = K. oxytoca 1082EN, Gram Negative, read-out: MIC
# [7] = K. pneumoniae 369, Gram Negative, read-out: MIC
# [8] = Prot. mirabilis 90, Gram Negative, read-out: MIC
# [9] = Ps. aeruginosa 56-1B, Gram Negative, read-out: MIC
# [10] = Serratia marcescens SM, constitutive ß-lactamase producer, Gram Negative, read-out: MIC
# [11] = Staph. pyogenes 4, Gram Positive and Others, read-out: MIC
# [12] = Str. pneumoniae N82-012-MC, Gram Positive and Others, read-out: MIC
# [13] = E. coli HMS1, Gram Negative, read-out: MIC
# [14] = E. coli Leo HA2M4, Gram Negative, read-out: MIC
# [15] = Prot. mirabilis 503-1136, Gram Negative, read-out: MIC
# [16] = Proteus vulgaris ATCC 6380, constitutive ß-lactamase producer, Gram Negative, read-out: MIC
# [17] = Staphylococcus aureus Smith, Gram Positive and Others, read-out: MIC
Structure (SMILES),MIC (A. calcoaceticus PCI-3) [µg/mL],MIC (Candida albicans 155) [µg/mL],MIC (E. coli 1527E) [µg/mL],MIC (E. coli 2722B) [µg/mL],MIC (E. coli 94) [µg/mL],MIC (E. coli DC-0) [µg/mL],MIC (E. coli DC-2) [µg/mL],MIC (Ent. hirae ATCC 8043) [µg/mL],MIC (Enterobacter cloacae P99) [µg/mL],MIC (Escherichia coli 257) [µg/mL],MIC (Micrococcus luteus PCI) [µg/mL],MIC (Prot. vulgaris 100) [µg/mL],MIC (Ps. aeruginosa 18SH) [µg/mL],MIC (Ps. aeruginosa 1973 E) [µg/mL],MIC (Ps. aeruginosa 56M) [µg/mL],MIC (Ps. aeruginosa 56) [µg/mL],MIC (Ps. aeruginosa B) [µg/mL],MIC (Ps. aeruginosa K799/61) [µg/mL],MIC (Ps. aeruginosa K799/WT) [µg/mL],MIC (Ps. cepacia 1973 B) [µg/mL],further results
"N#CCC(=O)N[C@@H]1C(=O)N2C(C(=O)O)=C(COC(=O)N[C@@H]3CCN(c4c(F)cc5c(=O)c(C(=O)O)cn(C6CC6)c5c4F)C3)CS[C@H]12 [Formula Ibb, [6R-[3(R^*), 6 alpha, 7 beta]]-3-[[[[[1-(3-Carboxy-1-cyclopropyl-6,8-difluoro-1,4-dihydro-4-oxo-7-quinolinyl-3-pyrrolidinyi]amino]carbonyl]oxy]methyL]-7-[(cyanoacetyl)amino]-8-oxo-5-thia-1-azabicyclo[4.2.0]oct-2-ene-2-carboxylic acid monosodium salt]",0.5,> 128,0.0625,≤ 0.0156,0.125,2,0.25,1,≤ 0.0156,0.125,0.0625,0.0625,1,1,0.25,1,1,0.25,1,4,"MIC (Bacillus subtilis 558; [4]): 0.0625 µg/mL; MIC (E. coli 2008 E; [5]): 0.0625 µg/mL; MIC (E. coli 4; 4): 0.125 µg/mL; MIC (E. coli HMS1; HMS1): 0.0313 µg/mL; MIC (E. coli Leo HA2M4): 0.0313 µg/mL; MIC (Enter. cloacae 4192-2): 0.0313 µg/mL; MIC (K. oxytoca 1082EN; [6]): 0.0625 µg/mL; MIC (K. pneumoniae 369; [7]): 0.5 µg/mL; MIC (Prot. mirabilis 503-1136): 0.125 µg/mL; MIC (Prot. mirabilis 90; [8]): 0.5 µg/mL; MIC (Prot. vulgaris 1028 BC; 1028BC): 0.0313 µg/mL; MIC ([1]; Proteus vulgaris): 0.125 µg/mL; MIC (Ps. aeruginosa 56-1B; [9]): 0.5 µg/mL; MIC (Ser. marcescens MA): 8 µg/mL; MIC (Serratia marcescens SM; [10]): 0.25 µg/mL; MIC (Staph. aureus 3647B; 3647B): 0.125 µg/mL; MIC (Staph. pyogenes 4; [11]): 0.0625 µg/mL; MIC ([2]; Staphylococcus aureus): 0.125 µg/mL; MIC [3, 12]: 0.25 µg/mL; MIC (Xan. maltophilia 2897B): 0.5 µg/mL"
"N#CCC(=O)N[C@@H]1C(=O)N2C(C(=O)O)=C(COC(=O)N[C@H]3CCN(c4c(F)cc5c(=O)c(C(=O)O)cn(C6CC6)c5c4F)C3)CS[C@H]12 [Formula Iba, [6R-[3(S^*), 6 alpha, 7 beta]]-3-[[[[[1-(3-Carboxy-1-cyclopropyl-6,8-difluoro-1,4-dihydro-4-oxo-7-quinolinyl-3-pyrrolidinyl]-amino]carbonyl]oxy]methyl]-7-[(cyanoacetyl)amino]-8-oxo-5-thia 1-azabicyclo[4.2.0]oct-2-ene-2-carboxylic acid monosodium salt]",0.0625,> 128,≤ 0.0156,≤ 0.0156,0.0313,0.5,0.0625,0.5,≤ 0.0156,0.0313,0.0625,0.0625,0.25,0.25,0.0625,0.25,0.25,0.0625,0.5,4,"MIC (Bacillus subtilis 558; Bacillus subtilis, 558): 0.0313 µg/mL; MIC (E. coli 2008 E; 2008E): 0.0313 µg/mL; MIC (E. coli 4; 4): 0.0313 µg/mL; MIC (E. coli HMS1; [13]): ≤ 0.0156 µg/mL; MIC (E. coli Leo HA2M4; [14]): ≤ 0.0156 µg/mL; MIC (Enter. cloacae 4192-2; Enter. cloacae 4192-2, Gram Negative, read-out: MIC): ≤ 0.0156 µg/mL; MIC (K. oxytoca 1082EN; [6]): ≤ 0.0156 µg/mL; MIC (K. pneumoniae 369; 369): 0.125 µg/mL; MIC (Prot. mirabilis 503-1136; [15]): 0.0625 µg/mL; MIC (Prot. mirabilis 90; 90): 0.125 µg/mL; MIC (Prot. vulgaris 1028 BC; Prot. vulgaris 1028 BC, Gram Negative, read-out: MIC): ≤ 0.0156 µg/mL; MIC [1, 16]: 0.0625 µg/mL; MIC (Ps. aeruginosa 56-1B): 0.125 µg/mL; MIC (Ser. marcescens MA): 4 µg/mL; MIC (Serratia marcescens SM; Serratia marcescens): 0.125 µg/mL; MIC (Staph. aureus 3647B; 3647B): 0.0313 µg/mL; MIC (Staph. pyogenes 4; 4): 0.0313 µg/mL; MIC [2, 17]: 0.0625 µg/mL; MIC [3]: 0.125 µg/mL; MIC (Xan. maltophilia 2897B): 0.25 µg/mL"
"O=C(Cc1cccs1)N[C@@H]1C(=O)N2C(C(=O)O)=C(COC(=O)N3CCN(c4c(F)cc5c(=O)c(C(=O)O)cn(C6CC6)c5c4F)CC3)CS[C@H]12 [Formula Ia, [6R,7R]-3-[[[[4-(3-Carboxy-1-cyclopropyl-6,8-difluoro-1,4-dihydro-4-oxo-7-quinolinyl)-1-piperazinyl]carbonyl]-oxy]-methyl]-8-oxo-7-[(2-thienylacetyl)amino]-5-thia-1-azabicyclo-[4.2.0]oct-2-ene-2-carboxylic acid]",0.25,> 128,≤ 0.0156,≤ 0.0156,0.0625,2,0.25,2,≤ 0.0156,0.0625,≤ 0.0156,0.125,1,1,0.25,1,0.5,2,2,4,"MIC (Bacillus subtilis 558; [4]): 0.0313 µg/mL; MIC (E. coli 2008 E; [5]): 0.0313 µg/mL; MIC (E. coli 4; E. coli 4, Gram Negative, read-out: MIC): 0.125 µg/mL; MIC (E. coli HMS1; [13]): ≤ 0.0156 µg/mL; MIC (E. coli Leo HA2M4; [14]): ≤ 0.0156 µg/mL; MIC (Enter. cloacae 4192-2): 0.0625 µg/mL; MIC (K. oxytoca 1082EN; 1082EN): 0.0625 µg/mL; MIC (K. pneumoniae 369; [7]): 0.5 µg/mL; MIC (Prot. mirabilis 503-1136; [15]): 0.5 µg/mL; MIC (Prot. mirabilis 90; [8]): 0.5 µg/mL; MIC (Prot. vulgaris 1028 BC; 1028BC): 0.0625 µg/mL; MIC [1, 16]: 0.125 µg/mL; MIC (Ps. aeruginosa 56-1B; [9]): 0.25 µg/mL; MIC (Ser. marcescens MA): 16 µg/mL; MIC (Serratia marcescens SM; [10]): 0.5 µg/mL; MIC (Staph. aureus 3647B; Staph. aureus 3647B, Gram Positive and Others, read-out: MIC): 0.5 µg/mL; MIC (Staph. pyogenes 4; [11]): ≤ 0.0156 µg/mL; MIC [2, 17]: 0.25 µg/mL; MIC [3, 12]: 0.0313 µg/mL; MIC (Xan. maltophilia 2897B): 1 µg/mL"
